Here are results for three compounds from US12391647B2, “Benzamide compound and preparation method, use, and pharmaceutical composition thereof” (INSTITUTE OF MATERIA MEDICA, CHINESE ACADEMY OF MEDICAL …, priority 2018, dated 2025).

Marks after values point to notes of the source that are not given here.

One experiment concerns p-STAT3 (Tyr705). Nature of the experiment: Western blotting of p-STAT3 expression in DU145 cells. In kind it is cell-based, human. The protocol: DU145 cells treated for 16 h with different concentrations of examples 12, 23, 33 and 34 and DU145 cells in control group were collected and washed twice with pre-cooled PBS. After appropriate amount of RIPA lysate (50 mM Tris-HCl, 1 mM EDTA, 1% Triton X-100, 150 mM NaCl, 0.1% SDS, 1 mM NaF, Na3VO4, protease inhibitor, pH 7.4) was added to lyse for 1 h on ice, the reaction mixture was centrifuged at 4° C., 12,000 rpm for 20 min, and then the supernatant was collected for protein quantification and boiled for denaturation. Equal amount of protein was taken for 10% SDS-PAGE electrophoresis. The specific antibodies of p-STAT3 (Tyr705) and STAT3 were used as primary antibody, which was incubated overnight at 4° C. The corresponding HRP-labeled secondary antibody was used, incubated at room temperature for 2 h, and washed. ECL chemiluminescence substrate reaction solution was added to develop in gel imaging system, and the image was saved. (3-actin was used as internal reference.

Experiment [1] concerns human prostate cancer cell DU145. Nature of the experiment: MTT assay, survival rate of tumor cells (antiproliferative activity). In kind it is cell-based. The following applies: DU-145, 72 h, read-out: Antiproliferative activity against human prostate cancer cell DU145, IC50. As to the method:
DU145 cells (human prostate cancer cells) in logarithmic growth phase were digested with 0.25% trypsin-EDTA to prepare single cell suspension, which was inoculated into 96-well plate overnight according to 1500 cells/well/100 μL, and fresh medium containing different concentrations of compounds to be tested and corresponding solvent control was added, and 100 μL (DMSO final concentration <0.1%) was added to each well, and the 96-well plate was further cultured at 37° C. for 72 h. 20 μL of freshly prepared PBS solution containing 5 mg/mL MTT was added to each well, and the 96-well plate was further cultured for 4 h. After the supernatant was discarded, 180 μL of DMSO was added to each well to dissolve the MTT formazan precipitate. After the 96-well plate was shaked and mixed by a micro oscillator, the optical density (OD) at the detection wavelength of 570 nm was measured. With DMSO-treated tumor cells as the control group, the inhibition rate on the growth of tumor cells of the compound to be tested was calculated from the following formula, and the IC50 was calculated according to the median-effect equation. Inhibition rate (%)=(average OD value of control group-average OD value of dosing group)/average OD value of control group×100%

For experiment [2], the system named is xenograft tumor of human prostate cancer DU145. Nature of the experiment: Xenotransplantation efficacy study in nude mice. Type of experiment: in vivo. To be noted: for Tumor growth inhibition: oral, DU145 xenograft; for inhibitory effect on the growth of xenograft tumor: subcutaneous DU145 xenograft. The protocol: Tumor cells of human prostate cancer DU145 were collected under aseptic conditions, and the cell density was adjusted to 1×10^6 cells/mL with sterilized normal saline, and then 0.2 mL of which was inoculated subcutaneously in the axillary back of nude mice. When the tumor grew to 1 cm in diameter, it was taken out under aseptic conditions, cut into tumor blocks with the size of 1 mm×1 mm, and inoculated subcutaneously in the axillary back of nude mice. Two weeks later, after the tumor grew to 100˜300 mm^3, the animals were randomly divided into groups and began to be administered (recorded as day 0). The compound to be tested is administered orally. The animals were weighed twice a week and the length and width of tumor were measured with vernier caliper. After the experiment, the nude mice were dislocated and killed, and the tumor tissues were stripped, weighed and photographed. Finally, the tumor inhibition rate was calculated, and the anti-tumor effect was evaluated by the tumor inhibition rate. The results are shown in tables 3 and 4 and FIGS. 2 and 3.
The tumor volume is calculated according to the following formula:
Tumor volume=(a×b^2)/2, where a and b represent the length and width of tumor respectively.
The tumor growth inhibition percentage is calculated according to the following formula: tumor growth inhibition (%)=(1−T/C)×100, T is the tumor volume of group of the compound to be tested, and C is the tumor volume of the solvent control group.

The test system of another experiment is STAT3 transcription. Nature of the experiment: STAT3 specific luciferase double reporter gene experiment in DU145 cells. In kind it is cell-based, human. To be noted: for STAT3 transcription inhibition activity: DU145, STAT3 specific luciferase double reporter; for IC50: Homo sapiens, DU-145, DU145 with high STAT3 expression, 24 h. The protocol:
The luciferase plasmids STAT3-TA-Luc and pGMLR-TK were transiently co-transfected into DU145 cells by Lipofectamine 3000. After staying overnight, different concentrations of compounds to be tested were added and cultured for 24 hours. The supernatant was discarded, and the residue was washed twice with PBS, and then 20 μL of lysis solution was added to shake and lyse for 5 min. The supernatant was transferred to a 96-well Costar whiteplate, and 70 μL of Dual-Glo luciferase substrate solution was added, and the relative fluorescence intensity of firefly luciferase was detected, and then 70 μL of Stop-Glo substrate solution was added, and the relative fluorescence intensity of sea kidney luciferase was detected, the normalized value was obtained, and the inhibition rate and IC50 value were calculated.

For the compound `Cc1ccc(S(=O)(=O)Nc2cc(C(=O)NCc3cccnc3)ccc2C)cc1` [Example 1, 4-methyl-3-((4-methylphenyl)sulfonamido)-N-(pyridin-3-ylmethyl) benzamide], the “inhibitory activity on STAT3 phosphorylation” value (from here on “inhibitory activity”) with p-STAT3 (Tyr705) (DU145, 1 μM concentration) is listed as “obvious inhibitory activity”. Also, the values for the IC50 (in experiment [1]; in the experiment with STAT3 transcription) were 120 ± 30 nM and 7000 ± 1300 nM, respectively. In addition, the Tumor growth inhibition is recorded as 58.8*** % in experiment [2] (10 mg/kg × 7 times), 62.7*** % in experiment [2] (20 mg/kg × 7 times) and 73.5*** % in experiment [2] (40 mg/kg × 7 times). Also, the “inhibitory effect on the growth of xenograft tumor” value (from here on “inhibitory effect on the growth”) in experiment [2] is “significant inhibitory effects”. Also, the “STAT3 transcription inhibition activity” value in the experiment on STAT3 transcription is recorded as “obvious STAT3 transcription inhibition activity”.
With `Cc1ccc(S(=O)(=O)Nc2cc(C(=O)NCc3ccc(C)nc3)ccc2C)cc1` [Example 33, 4-methyl-3-((4-methylphenyl)sulfonamido)-N-((6-methylpyridin-3-yl)methyl)benzamide], the “inhibitory activity” value with p-STAT3 (Tyr705) (DU145, 0.1 μM concentration) is reported as “obvious inhibitory activity”. The IC50 in experiment [1] came out at 8 ± 1 nM; with STAT3 transcription it was 500 ± 120 nM. The figures for the Tumor growth inhibition in experiment [2] (20 mg/kg × 6 times) and in experiment [2] (40 mg/kg × 5 times) were 63.0** % and 80.0** %, respectively. For the same compound, the “inhibitory effect on the growth” value in experiment [2] is reported as “significant inhibitory effects”. In the experiment with STAT3 transcription, the “STAT3 transcription inhibition activity” value is listed as “obvious STAT3 transcription inhibition activity”.
In the case of `CCc1ccc(S(=O)(=O)Nc2cc(C(=O)NCc3cccnc3)ccc2C)cc1` [Example 12, 3-((4-ethylphenyl)sulfonamido)-4-methyl-N-(pyridin-3-ylmethyl)benzamide], in the experiment on p-STAT3 (Tyr705) (DU145, 0.5 μM concentration), the “inhibitory activity” value is on record as “obvious inhibitory activity”. Also, the IC50 is 40 ± 10 nM in experiment [1] and 1000 nM in the experiment on STAT3 transcription. The Tumor growth inhibition in experiment [2] (20 mg/kg × 14 times) is recorded as 40.4%; in experiment [2] (40 mg/kg × 11 times), 79.7*** %. The “inhibitory effect on the growth” value in experiment [2] is “significant inhibitory effects”. Besides, in the experiment on STAT3 transcription, the “STAT3 transcription inhibition activity” value was “obvious STAT3 transcription inhibition activity”.
